Measured values taken from PMC3942691, “The Dipeptide Monoester Prodrugs of Floxuridine and Gemcitabine—Feasibility of Orally Administrable Nucleoside Analogs” (Pharmaceuticals, 2014).

Columns and labels:
[1] = tested on: AsPC-1 cells; test: Uptake study in AsPC-1 cells; format: cell-based; conditions: 0.1 mM, 1 h
Experimental: (§1) Caco-2, Panc-1, and AsPC-1 cells were grown on a 6-well plate for 18, 6, and 6 days, respectively. Wells were rinsed with MES (pH 6.0) buffer twice. Fresh MES buffer was reapplied to each well and incubated at 37 °C for 15 min. Each drug was individually tested from freshly prepared solutions in MES buffer (0.1 mM, total 0.3 mL) with the presence and the absence of 10 mM glycyl-proline (Gly-Pro). The solution was placed in each well and incubated at 37 °C for 60 min. Drug solution was removed and 3 mL of ice-cold PBS was immediately placed in each well. Each well was rinsed with 3 mL of cold-PBS twice and 0.5 mL of methanol/H2O (1:1) containing 0.1% TFA was placed in each well. The cell suspension was collected and transferred to a new tube. Those tubes were spun at 1,000 × g at 4 °C for 5 min. The supernatant was mixed with equal amount of water with either 0.1% formic acid or 0.1% ammonium hydroxide for LC-MS analysis. The cell pullets were used to determine protein amount with the Bio-Rad DC Protein Assay using bovine serum albumin as a standard.
(§2) The LC-MS analytical method of 5′-mono amino acid ester prodrugs of floxuridine has been reported previously. The LC-MS analysis of dipeptide monoester prodrugs of floxuridine and gemcitabine along with their parent drugs was modified and performed in a similar manner. Briefly, LC-MS analysis of the uptake drug amount was performed in triplicate on LCMS-2010EV (Shimadzu Scientific Instruments, Kyoto, Japan) equipped with an ESI (electrospray ionization) source. The Shimadzu LC-MS system consisting of Shimadzu LC-20AD pumps with DGU-20A in-line vacuum degasser units, and SIL-20A HT autosampler with an InertSustain C-18, 2.1 × 50 mm, 3 µm particle size, (GL Sciences, Torrance, CA, USA) was used for the separation and the effluent from the column was introduced directly to the ionization source. The system was controlled by Shimadzu LCMS solution software (version 3) to collect and process data. All samples were run with Solvent A and Solvent B with Solvent B gradient changing from 0%–90% at a rate of 13.8%/min over a 22 min run. […]

[2] = tested on: Panc-1 cells; test: Cell proliferation assay (XTT) in Panc-1 cells; format: cell-based
Experimental: (§3) Cell proliferation studies were conducted with Panc-1 and AsPC-1 cells. The cells were seeded into 96-well plates at 80,000 cells per well and allowed to attach/grow for 48 h before drug solutions were added. The culture medium (DMEM +10% fetal bovine serum or RPMI-1640 +10% fetal bovine serum) was removed and the cells were gently washed once with sterile pH 6.0 uptake buffer. Floxuridine, 5′-L-phenylalanyl-L-tyrosyl-floxuridine, gemcitabine and 5′-L-phenylalanyl-L-tyrosyl-gemcitabine were 2-fold serially diluted in pH 6.0 uptake buffer from 5 to 0.078 mmol/L. Buffer alone was used as a 100% viability control. The wash buffer was removed and 30 µL drug solution per well was added and incubated at 37 °C for 2 h in the cell incubator. After this time, the drug solutions were removed and the cells were again gently washed twice with sterile uptake buffer. The culture medium was then added to each well after washing. The cells were allowed to recover for 24 h before evaluating cell viability via 2,3-bis[2-methoxy-4-nitro-5-sulfophenyl]-2H-tetrazolium-5-carboxanilide inner salt (XTT) assays. A mixture (30 µL) containing XTT (1 mg/mL) in sterile RPMI-1640 without phenol red and phenazine methosulfate (N-methyldibenzopyrazine methyl sulfate in sterile PBS, 0.383 mg/mL) reagents were added to the cells and incubated at 37 °C for 1 h, after which the absorbance at 450 nm was read. The concentrations required to inhibit cell growth by 50% (GI50) were calculated using GraphPad Prism version 3.0 by nonlinear data fitting.

[3] = tested on: AsPC-1 cells; test: Cell proliferation assay (XTT) in AsPC-1 cells; format: cell-based; conditions: 24 h recovery
Experimental: as §3

[4] = tested on: Caco-2 cells; test: Uptake study in Caco-2 cells; format: cell-based; conditions: 0.1 mM, 1 h
Experimental: as §1, §2

[5] = Drug concentration and species in mouse plasma after in situ perfusion; format: in vivo; conditions: for parent drug, share of totally observed amount in plasma: parent drug perfused; for parent drug, share of totally observed amount in plasma / first metabolite (5-FU or cytosine) in plasma: mouse plasma after in situ perfusion; for prodrug form, share of totally observed amount in plasma: mouse plasma at 2 h following in situ perfusion
Experimental: All animal experiments were conducted using protocols approved by the University of Michigan Committee of Use and Care of Animals (UCUCA). Female BALB/c mice (Charles River, IN, USA) weighing 20–25 g were used for all perfusion studies. Prior to each experiment, mice were fasted overnight with free access to water.
At the start of the study, the test compound (100 µM) in perfusion buffer (pH 6.0) including phenol red was perfused through the intestinal segment (Watson-Marlow Pump 323S, Watson-Marlow Bredel Inc., Wilimington, MA, USA), at the flow rate of 0.1 mL/min. The perfusion buffer was perfused for 30 min to assure steady-state and samples were taken in every 10 min for 90 min. At the end of perfusion, blood samples were collected by cardiac puncture. Blood samples with heparin were centrifuged at 1,000 × g for 10 min at 4 °C to collect plasma samples for LC-MS analysis. Following the termination of the experiment, the length of each perfused intestinal segment was measured.
The LC-MS analytical method of 5′-mono amino acid ester prodrugs of floxuridine has been reported previously. The LC-MS analysis of dipeptide monoester prodrugs of floxuridine and gemcitabine along with their parent drugs was modified and performed in a similar manner. Briefly, LC-MS analysis of the uptake drug amount was performed in triplicate on LCMS-2010EV (Shimadzu Scientific Instruments, Kyoto, Japan) equipped with an ESI (electrospray ionization) source. The Shimadzu LC-MS system consisting of Shimadzu LC-20AD pumps with DGU-20A in-line vacuum degasser units, and SIL-20A HT autosampler with an InertSustain C-18, 2.1 × 50 mm, 3 µm particle size, (GL Sciences, Torrance, CA, USA) was used for the separation and the effluent from the column was introduced directly to the ionization source. The system was controlled by Shimadzu LCMS solution software (version 3) to collect and process data. All samples were run with Solvent A and Solvent B with Solvent B gradient changing from 0%–90% at a rate of 13.8%/min over a 22 min run. The mobile phase consisted of 0.1% TFA/water (Solvent A) and 0.1% TFA/acetonitrile (Solvent B) for gemcitabine, gemcitabine prodrug and floxuridine prodrug. The mobile phase consisted of 0.1% ammonium hydroxide/water (Solvent A) and 0.1% ammonium hydroxide /acetonitrile (Solvent B) for floxuridine. The ESI probe was operated with a detector voltage of 1.5 kV, CDL temperature of 250 °C, heat block of 200 °C, and nebulizing gas flow of […] in positive mode for gemcitabine prodrugs and their metabolites. The drying gas was N2 delivered at 0.1 MPa.

[6] = Homo sapiens, PANC-1, 2 h exposure, 24 h recovery, XTT
[7] = Homo sapiens, ASPC1, 2 h exposure

Question: Which results are given for “2′,2′-difluoro-2′-deoxyuridine [Gemcitabine]”?
Answer: Parent drug, share of uptake [1]: 90%; GI50 ([2]; tested 5 to 0.078 mmol/L): > 5 mM; GI50 ([3]; 2 h exposure): 10.2 ± 1.6 mM; Parent drug, share of uptake [4]: 95%; parent drug, share of totally observed amount in plasma [5]: 83%

Question: For `NC(Cc1ccccc1)C(=O)NC(Cc1ccc(O)cc1)C(=O)OCC1OC(n2cc(F)c(=O)[nH]c2=O)CC1O` [5′-L-Phenylalanyl-L-tyrosyl-floxuridine], which “Prodrug, share of uptake” value [1] is on record?
Answer: 60%

Question: What about the GI50 [2, 6] of the same compound?
Answer: 3 ± 0.3 mM

Question: And the GI50 [3, 7]?
Answer: 4.2 ± 0.1 mM

Question: And the “Prodrug, share of uptake” value [4]?
Answer: 45%

Question: What about the “drug concentration in mouse plasma, rank among tested compounds” value ([5]; after in situ perfusion) of the same compound?
Answer: highest drug concentration

Question: And the “first metabolite (5-FU or cytosine) in plasma” value [5]?
Answer: not observed

Question: What about the “prodrug form, share of totally observed amount in plasma” value [5] of the same compound?
Answer: 81%

Question: For `Nc1ccn(C2OC(COC(=O)C(Cc3ccc(O)cc3)NC(=O)C(N)Cc3ccccc3)C(O)C2(F)F)c(=O)n1` [5′-L-Phenylalanyl-L-tyrosyl-gemcitabine], which “Prodrug, share of uptake” value [1] is on record?
Answer: 39%

Question: What about the GI50 [2, 6] of the same compound?
Answer: 3.2 ± 0.7 mM

Question: What about the GI50 [3, 7] of the same compound?
Answer: 5 ± 0.3 mM

Question: What about the “Prodrug, share of uptake” value [4] of the same compound?
Answer: 6%

Question: What about the “first metabolite (5-FU or cytosine) in plasma” value [5] of the same compound?
Answer: one-third

Question: What about the “prodrug form, share of totally observed amount in plasma” value [5] of the same compound?
Answer: 40%

Question: Which GI50 ([2]; Homo sapiens, PANC-1, tested 5 to 0.078 mmol/L) does the source give for `O=c1[nH]c(=O)n([C@H]2C[C@H](O)[C@@H](CO)O2)cc1F` [Floxuridine, 5-fluoro-2′-deoxyuridine] here?
Answer: > 5 mM

Question: What about the “parent drug, share of totally observed amount in plasma” value [5] of the same compound?
Answer: only drug observed
